“Also recorded” adds a separate entry of the source.
Columns and labels:
[1] = In vivo tolerability of JH-FK-05; parameters: species or system mouse; conditions: daily i.p., up to 60 mg/kg
Description: Based on the in vitro evidence of reduced immunosuppressive activity of JH-FK-05, it was hypothesized that this reduction would translate into reduced immunosuppression in an in vivo model. The murine model for immunosuppression measures the T cell-dependent proliferation of two immune cell subtypes in response to immunization with an antigen. Animals were treated daily via intraperitoneal (i.p.) injection with vehicle, 5 mg/kg FK506, or 60 mg/kg JH-FK-05, beginning on day −1 and ending on day 7. […] On day 0, animals were immunized with NP-OVA to stimulate T cell-dependent signaling that would result in proliferation of T follicular helper (Tfh) cells and germinal center (GC) B cells. Animals were sacrificed on day 7, and the proportions of Tfh and GC B cells in the lymph nodes were measured. […]
Groups of 6 female C57BL/6 mice (Jackson Laboratory) were treated daily by intraperitoneal (i.p.) injection with about 100 μL vehicle, 5 mg/kg FK506, or 60 mg/kg JH-FK-05 beginning on day −1. […] Mice were treated and monitored daily until they were sacrificed on day 7. Draining lymph nodes were harvested on day 7, and the populations of T follicular helper cells and GC B cells were analyzed by flow cytometry. Tfh and GC B cells were measured from T Cell Receptor β (TCRβ^+) CD4^+CD44^hi cells and TCRβ^−CD19^+ cells, respectively.

[2] = tested on: C. neoformans H99; assay: Intravenous model of disseminated cryptococcosis, brain fungal burden (Example 1); type: in vivo, Cryptococcus neoformans in mice
From the text: The high in vitro antifungal activity of JH-FK-05 presented promising evidence that it might effectively reduce fungal burden in the context of murine infection. Two models of C. neoformans infection were employed to test this hypothesis (FIG. 7A). First, in the intranasal model, animals were anesthetized and infected with 10^5 cells of wild-type H99 C. neoformans via instillation in the animal's nares. These animals were monitored for 14 days and then sacrificed. This model tests the efficacy of JH-FK-05 to treat a pulmonary infection, which is the most common manifestation of early-stage cryptococcosis in patients. Second, the intravenous (i.v.) model approximates the disseminated stage of disease. […]
Wild-type H99 C. neoformans cells were grown overnight at 30° C. in a roller drum in yeast extract-peptone-dextrose (YPD) medium. […] H99 cells were counted with a hemacytometer and diluted to 2×10^6 cells/mL in PBS for the pulmonary model and 2×10^5 cells/mL in PBS for the disseminated model. […]
Mice were euthanized by CO2 inhalation at the predetermined experimental endpoint. […] A 100-μL aliquot of each dilution was plated on antibiotic plates (YPD, 50 μg/mL ampicillin, and 30 µg/mL chloramphenicol), incubated for 48 to 72 h at 30° C., and assessed for CFU. […] Statistical significance was calculated using an ordinary one-way analysis of variance (ANOVA) with Tukey's multiple-comparison test.

[3] = tested on: C. neoformans strain H99; assay: Murine cryptococcal infection, lung fungal burden (Example 3); type: in vivo, Cryptococcus neoformans in A/J mice; conditions: once daily; fluconazole 12 mg/kg, JH-FK-08 40 mg/kg
Description: In vivo antifungal activity and therapeutic benefit were assayed by investigating the impact of the FK520 analog on organ fungal burden during cryptococcosis. Specifically, the in vivo efficacy of JH-FK-08 on fungal burden was assessed using A/J female mice. Immunodeficient A/J mice were selected in part due to their defect in complement component five and their susceptibility to cryptococcal infection. Treatment groups included vehicle of 10% Kolliphor: ethanol (1:1) in phosphate-buffered saline (PBS), […], or the fluconazole and JH-FK-08 combination, […] infection. […] Mice were intranasally infected with C. neoformans strain H99, and fungal burden in the lung, spleen, and brain was assessed after 14 days of treatment.
C. neoformans inoculum was prepared by growing a 5-mL overnight YPD culture spinning in a tissue culture roller drum at 30° C. Cells were pelleted by centrifugation and washed in sterile PBS three times. Cell density was determined by hemocytometer, and cells were diluted to 2×10^6 cells/mL. Mice (10 to 20 g) were infected with 10^5 cells of C. neoformans H99. For inhalation infection, animals were anesthetized with isoflurane before 50 μL of inoculum was pipetted onto the upright nasal passages of each animal. Following inhalation of the inoculum, animals were monitored for post anesthesia recovery. Treatment of animals began 4 hours post infection and was continued for 14 days. Fungal burden was assessed 24 h after the final dose.
For survival curve analysis, animals were monitored until reaching defined humane end points, including social isolation, hunched posture, weight loss, lack of grooming, and labored breathing, and were then euthanized via CO2 inhalation. […] One hundred microliters of each dilution was plated on YPD plates supplemented with YPD 50 μg/mL ampicillin and 30 μg/mL chloramphenicol, incubated at 30° C. for 2 days, and assessed for colony-forming units. CFU per organ weight was calculated and plotted using GraphPad Prism 9.

Row | SMILES | tolerability [1] | reduction of brain fungal burden ([2]; day 7, JH-FK-05 60 mg/kg, fluconazole 12 mg/kg, i.p. daily) [fold] | blood-brain barrier crossing ([2]; inferred from brain fungal burden) | lung fungal burden reduction [3]
1 | CC[C@@H]1/C=C(\C)C[C@H](C)C[C@H](OC)[C@H]2O[C@@](O)(C(=O)C(=O)N3CCCC[C@H]3C(=O)O[C@H](/C(C)=C/[C@@H]3CC[C@@H](O)[C@H](OC)C3)[C@H](C)[C@@H](O)C/C1=N/NC(C)=O)[C@H](C)C[C@@H]2OC [JH-FK-05] | tolerated at a dose as high as 60 mg/kg; also recorded: well tolerated by animals throughout the course of treatment; also recorded: animals tolerated JH-FK-05 treatment for the full treatment period | 2 | can cross the blood-brain barrier | 
2 | CC[C@@H]1/C=C(\C)C[C@H](C)C[C@H](OC)[C@H]2O[C@@](O)(C(=O)C(=O)N3CCCC[C@H]3C(=O)O[C@H](/C(C)=C/C3CC[C@@H](O)[C@H](OC)C3)[C@H](C)[C@@H](O)C/C1=N/NC(=O)OC)[C@H](C)C[C@@H]2OC (stereo partly shown) [JH-FK-08] |  |  |  | limited efficacy in reducing lung fungal burden

Source: US20260315446A1, “ANTIFUNGAL COMPOUNDS AND USES THEREOF” (priority 2023, published 2026)
